According to patent US12350244B2, “MEK-inhibitor for the treatment of viral and bacterial infections” (priority 2019, dated 2025):
Where two headings read alike, the source gives them in different places.

Experiments:
[1] = system: influenza virus; conditions: mouse model, cited from earlier work; for effect of treatment started late post infection: 48 h or more post infection, previous studies
[2] = system: S. aureus 6850; test: Over-night treatment, bacterial titers (CFU/ml), strain 6850; type: cell-based, Staphylococcus aureus; conditions: for effect on bacterial titers: over-night treatment, concentrations as indicated in figures
[3] = system: H1N1pdm09; test: Lung virus titration assay in mice (Example 11); type: in vivo, C57BL/6 mice; conditions: for virus titer in the lung (control set to 100%): 24 h after infection
Procedure: (A) After H1N1pdm09 infection female C57BL/6 mice were treated with either 2.8, 8.4 or 25 mg/kg PD-0184264 (left side) or with 25, 75 or 150 mg/Kg […] (left side) the oral route. 24 hrs after infection the animals were killed and lung was taken to prepare a 10% suspension. Virus titer was determined using the standard method. Virus titer of mice treated with the two MEK-inhibitors were compared to virus titer of mice treated with solvent (Control) alone. Virus tier in the lungs of control mice was set to 100% (black bar). Graphpad Prism 7 software was used to illustrate both figures.
For oral application of 25 mg/kg, 2.5 mg of PD-0184264 were dissolved in 50 μl DMSO (Sigma-Aldrich, Germany) and further diluted with 0.15 ml Cremophor EL (Merck-Millipore, Germany) and 0.8 ml PBS (Gibco, Germany). For application of 8.4 mg/kg and 2.8 mg/kg, 0.84 mg or 0.28 mg PD-0184264 were dissolved with 50 μl DMSO (Sigma-Aldrich, Germany) and further diluted with 0.15 ml Cremophor EL/0.8 ml PBS.
Eight week old female C57Bl/6 mice (Charles River Laboratories, Germany) with a body weight of 21.0-24.0 g at administration were used for antiviral studies. The animals were normally fed. Drinking water was available ad libitum.
Drugs were administrated using a single dosing on test day 1 by oral gavage. The application speed was 15 s per dose with an administration volume of 200 μl.
Mice were sacrificed 24 h post infection and lungs were weighed, transferred into a Lysing Matrix D tube (MP Bio) and BSS was applied in an amount of the 10-fold volume of the lung. Organs were shredded using the FastPrep FP 120 (Savant). To remove the cell debris the homogenates were centrifuged for 15 min at 2000 rpm and the supernatant collected. The determination of virus titer in homogenates was performed using the AVICEL® plaque assay as described previously (Haasbach et al. 2011, Mastrosovich et al. 2006).

[4] = system: S. aureus; test: Resistance development under constant treatment for 17 days; type: cell-based, Staphylococcus aureus; conditions: 24 h cycles repeated for 17 days
[5] = system: Streptococcus pneumoniae strains TIGR4 (serotype 4) and D39 wt (serotype 2); test: Growth of Streptococcus pneumoniae (OD600, CFU/ml); type: cell-based; conditions: over-night treatment, different concentrations
Procedure: Additionally, these kinases share high homology to cellular MAP kinases (e.g. ERK, JNK, p38). […] Thus, the impact of PD-0184264 on different strains of Streptococci pneumonia was analyzed. Streptococcus pneumoniae strains can be divided into different serotypes, which differ in their virulence and overall pathogenicity. To test for a serotype- or strain-independent effect, we used the encapsulated strains D39 and TIGR4, which are both virulent, but belong to different serotypes. […] Then, the OD600 was measured again (Results shown in FIG. 11A) and dilution series were objected to BHI agar plates to determine bacterial titers (Results shown in FIG. 11B).

[6] = system: A549 cells; test: WST-assay; type: cell-based, human; conditions: 24 h, FIG. 17C
Procedure: A549 cells were seeded in a 96-well flat-bottom tissue plate (Greiner, Germany) and were grown overnight. […] Thereafter, 10 μl WST-1 reagent (Roche, Germany) was added to the culture medium and incubated for four hours. During this time, the stable tetrazolium salt WST-1 was cleaved to a soluble formazan by metabolically active cells in the culture. After this incubation period, the formazan dye formed was quantitated with ELISA reader at 405 nm. The measured absorbance directly correlated to the number of viable cells.

[7] = system: MRSA strain USA300; test: Over-night treatment, bacterial titers (CFU/ml), MRSA USA300; type: cell-based, Staphylococcus aureus; conditions: for effect on bacterial titers: over-night treatment, concentrations as indicated in figures
[8] = system: strain A/Regensburg/D6/2009 Influenza H1N1pdm09; test: Survival of infected mice with late start of treatment; type: in vivo, C57BL/6 mice; conditions: 25 mg/kg oral BID
[9] = system: A549 cells; test: A549 cell viability (trypan blue) and LDH release; type: cell-based, human; conditions: 1, 5, 10, 20, 50 or 100 μM, 24 or 48 hours
Procedure: To rule out that the reduction in viral and intracellular bacterial replication was a result of a cytotoxic effect of PD-0184264 on A549 cells, cell viability in presence of increasing concentrations was monitored for 24 and 48 hours. Additionally, a LDH-Assay was performed to determine membrane rupture due to inhibitor treatment. […] A549 cells were treated for 24 (as shown in FIGS. 15A and C) or 48 (as shown in FIGS. 15B and D) hours with increasing concentrations of PD-0184264 (1, 5, 10, 20, 50 or 100 μM). After the incubation times, supernatants were taken for measurement of LDH release (shown in FIGS. 15C, D) using the CytoSelect LDH Cytotoxicity Assay Kit according to the manufacturer's instructions. Additionally, viable cells were counted by staining with trypan blue. Cell viability was normalized to DMSO-treated cells and is shown as % viability. […] Statistical significance was calculated by one-way ANOVA followed by Dunnett's multiple comparisons test (* p<0.05; ** p<0.01; 27 *** p<0.001).

[10] = system: A549 cells infected with IAV (H1N1) and/or S. aureus 6850; type: cell-based
[11] = system: influenza virus strain A/Regensburg/D6/2009, (RB1, H1N1pdm09); test: Lung virus titer in influenza-infected mice (Example 1); type: in vivo, C57BL/6 mice
Procedure: 8 weeks old C57BL/6 mice (five per group) were infected with 1.5×10^5 PFU (5×MLD50) of the influenza virus strain A/Regensburg/D6/2009, (RB1, H1N1pdm09). […] All animals received a volume of 200 μl per os. Mice were sacrificed 24 h post infection and lungs were weighed, transferred into a Lysing Matrix D tube (MP Bio) and BSS (buffered salt solution) in an amount of the 10-fold volume of the lung was applied to the samples. Organs were shredded using the FastPrep FP 120 (Savant). To remove the cell debris the homogenates were centrifuged for 15 min at 2000 rpm and the supernatant collected. The determination of virus titer in homogenates was performed using the AVICEL® plaque assay. Results are presented in FIG. 1 as virus titer (log 10) pfu/ml (left) or % virus titer (right). Virus titer was determined by two investigators independently. Mean values from all titrations were presented.

[12] = system: MRSA strain USA300; test: Bacterial growth under heat stress, MRSA USA300; type: cell-based, Staphylococcus aureus; conditions: 20 μM over night, then 42° C. for 6 h
Procedure: (§1) As the kinase is known to play an important role in bacterial stress resistance, bacterial growth under heat stress was monitored after treatment of the bacteria with the inhibitor PD-0184264. S. aureus strain 6850 and MRSA strain USA300 were treated over night with either solvent or 20 μM of the PD-0184264. The next day subcultures with the same amount of bacteria were prepared (confirmed by OD600 and plating on BHI agar) and further incubated at 42° C. for 6 h. Bacterial titers were then calculated via plating of serial dilutions on BHI agar plates. […] This is both observed for the methicillin-sensitive strain 6850 (black bars) as well as for the MRSA strain USA300 (grey bars). Impaired stress tolerance in the presence of the inhibitor is another indication that PD-0184264 directly targets the kinase PknB, which is an important mediator of stress resistance. In summary, the data provide strong circumstantial evidence, that PD-0184264 elicits its antibacterial action by inhibition of the bacterial kinase PknB.

[13] = system: S. aureus strain 6850; test: Bacterial growth under heat stress, strain 6850; type: cell-based, Staphylococcus aureus; conditions: 20 μM over night, then 42° C. for 6 h
Procedure: as §1

[14] = system: S. aureus 6850; test: Time-of-addition assay, bacterial growth; type: cell-based, Staphylococcus aureus

For O=C(NOCC1CC1)c1ccc(F)c(F)c1Nc1ccc(I)cc1Cl [CI-1040, 2-(2-chloro-4-iodophenylamino)-N-(cyclopropylmethoxy)-3,4-difluoro benzamide, reference compound], the “treatment window post infection” value ([1]; Haasbach et al. 2017 and further experiments of the applicant) is listed as “at least 48 h”, the “effect on bacterial titers” value [2] is listed as “effective” and the “doses showing any effect in reduction of virus titer” value ([3]; oral, 25, 75 or 150 mg/kg tested) is listed as at least 75 mg/kg.

In the case of CC[C@H]1OC(=O)[C@H](C)[C@@H](O[C@H]2C[C@@](C)(OC)[C@@H](O)[C@H](C)O2)[C@H](C)[C@@H](O[C@@H]2O[C@H](C)C[C@H](N(C)C)[C@H]2O)[C@](C)(O)C[C@@H](C)C(=O)[C@H](C)[C@@H](O)[C@]1(C)O [Erythromycin], the resistance development [4] is reported as “readily develop resistances”.

For O=C(O)c1ccc(F)c(F)c1Nc1ccc(I)cc1Cl [PD-0184264, 2-(2-chloro-4-iodophenylamino)-N-3,4-difluoro benzoic acid], the “sensitivity of both serotypes (OD600, bacterial titers)” value [5] was “sensitive”, the CC50 [6] was over 1580 µM and the “effect on bacterial titers” value [7] was “very strong reduction in bacterial load”. For the same compound, the “mice protected (survival)” value ([8]; treatment started 24 hours after infection) was “six out of eight”, the “mice protected (survival)” value ([8]; treatment started 48 hours after infection) was “five out of eight” and the “mice protected (survival)” value ([8]; treatment started 72 hours after infection) was “two out of eight”. The resistance development [4] was “did not induce resistance”, the “cell toxicity (viability, LDH release)” value [9] was “does not induce cell toxicity” and the “concentration at which reduction of the cytopathic effect is already shown” value ([10]; co-infection, FIG. 5) was 15 µM. The “cytopathic effect (CPE), cell monolayer” value ([10]; increasing concentrations, 24 h, IAV H1N1 MOI 0.001 and S. aureus 6850 MOI 0.1) was “reversed in a concentration dependent manner”, the bacterial growth ([2]; 10 μM, FIG. 4 (strains 6850 and USA300)) was “significant reduction of growth” and the “effect on bacterial titers” value [2] was “very strong reduction in bacterial load”. The “virus titer in the lung, effect compared with CI-1040” value ([11]; 25 mg/kg PD-0184264 per os in an 8 h interval, 24 h post infection, FIG. 1) was “same effect as 150 mg/kg CI-1040”, the “efficacy in vivo by oral administration” value ([11]; 25 and 75 mg/kg per os) was “effective” and the “virus titer in the lung (control set to 100%)” value ([3]; 2.8 mg/kg oral) was “approx. 70%”. For the same compound, the “virus titer in the lung (control set to 100%)” value ([3]; 8.4 mg/kg oral) was “approx. 20%”, the “virus titer in the lung (control set to 100%)” value ([3]; 25 mg/kg oral) was “approx. 10%” and the “bacterial growth under heat stress” value [12] was “strongly impaired”. For the same compound, the “bacterial growth under heat stress” value [13] was “strongly impaired”, the “inhibition of bacterial growth compared with all other compounds” value ([14]; 0, 3 h and 6 h post inoculation, versus U0126 and gentamicin 0.5 or 2 μg/ml) was “strongest inhibition of bacterial growth” and the “mode of antibacterial action” value ([14]; after medium exchange and incubation without substances) was “bacteriostatic rather than a bactericidal action”.

For N#CC(=C(/N)Sc1ccccc1N)/C(C#N)=C(\N)Sc1ccccc1N [U0126], the “effect on bacterial titers” value [7] was “minor reduction in bacterial titers” and the “effect on bacterial titers” value [2] was “minor reduction in bacterial titers”.

In the case of CCOC(=O)C1=C[C@@H](OC(CC)CC)[C@H](NC(C)=O)[C@@H](N)C1 [oseltamivir], the “effect of treatment started late post infection” value [1] is listed as “no longer effective” and the “effect of treatment started late post infection” value ([1]; listed as Tamiflu) is listed as “no effect”.

For Gentamicin, the bacterial titers ([7]; 0.5 μg/ml, over night) was “no reduction in bacterial titers”, the resistance development [4] was “resistance development occurred during the first week of treatment” and the bacterial titers ([2]; 0.5 μg/ml, over night) was “no reduction in bacterial titers”.
